Measurements reported in paper PMC11999265, “New routes for spermine biosynthesis” (The Journal of Biological Chemistry, 2025).

Legend:
[1] = target: T1, Psychromonas marina CASDH (Psychromonas marina, UniProt A0ABQ6DYR2); experiment: LC-MS of benzoylated spermidine in E. coli extract; type: cell-based; conditions: endogenous putrescine, BL21speD, coexpressed with CASDC
T1 sequence (A0ABQ6DYR2 1-405): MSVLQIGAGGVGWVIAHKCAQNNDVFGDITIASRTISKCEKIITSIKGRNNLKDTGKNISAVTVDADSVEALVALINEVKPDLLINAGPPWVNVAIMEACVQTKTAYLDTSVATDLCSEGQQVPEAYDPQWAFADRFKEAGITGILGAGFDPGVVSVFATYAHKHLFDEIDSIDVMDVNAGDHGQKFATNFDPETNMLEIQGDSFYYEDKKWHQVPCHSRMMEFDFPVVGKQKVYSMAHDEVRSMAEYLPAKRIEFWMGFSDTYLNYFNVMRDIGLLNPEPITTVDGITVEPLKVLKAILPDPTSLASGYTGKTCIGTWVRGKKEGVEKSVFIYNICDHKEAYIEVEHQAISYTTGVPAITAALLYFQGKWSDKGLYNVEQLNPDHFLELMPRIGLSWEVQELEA

Brucella abortus CASDH = target: T2, Brucella abortus CASDH (Brucella abortus, UniProt Q2YPK8); conditions: endogenous putrescine, BL21speD, coexpressed with CASDC
T2 construct: gene BAB1_0364

For `NCCCCN` [putrescine], the “LC-MS of benzoylated spermidine in E. coli extract” value [1] was “all CASDH/CASDC pairs were able to synthesize spermidine in the spermidine-void BL21speD cells” and the “LC-MS of benzoylated spermidine in E. coli extract” value (Brucella abortus CASDH) was “all CASDH/CASDC pairs were able to synthesize spermidine in the spermidine-void BL21speD cells”.
